Assay results: patent publication US6737383B1, “Herbicidal oxadiazolidines” (priority 1999, dated 2004)

What was measured:
crabgrass = test: Test B pre/postemergence crabgrass; assay type: in vivo, Digitaria sanguinalis
Outline: (§1)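 Herbicidal effect was estimated by eye on a ten-point control scale after plants spent twelve to sixteen days in a greenhouse following soil or foliar treatment. Foliar sprays targeted plants at one to four leaves; all doses were formulated in a non-phytotoxic solvent with surfactant.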

purple nutsedge = test: Test B pre/postemergence purple nutsedge; assay type: in vivo, Cyperus rotundus
Outline: as §1

wild oat = test: Test B pre/postemergence wild oat; assay type: in vivo, Avena fatua
Outline: as §1

corn = test: Test B pre/postemergence corn; assay type: in vivo, Zea mays
Outline: as §1

velvetleaf = test: Test B pre/postemergence velvetleaf; assay type: in vivo, Abutilon theophrasti
Outline: as §1

blackgrass = test: Test B pre/postemergence blackgrass; assay type: in vivo, Alopecurus myosuroides
Outline: as §1

sugar beet = test: Test B pre/postemergence sugar beet; assay type: in vivo, Beta vulgaris
Outline: as §1

rice = test: Test B flood test rice; assay type: in vivo, Oryza sativa
Outline: (§2)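 Read-out is a visual response score from 0 (no effect) to 10 (complete control), assigned by comparison with untreated controls. Treatment was applied at the 2-leaf stage, and plants stayed in the greenhouse for twelve to sixteen days before scoring.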

giant foxtail = test: Test B pre/postemergence giant foxtail; assay type: in vivo, Setaria faberii
Outline: as §1

bedstraw = test: Test B pre/postemergence bedstraw; assay type: in vivo, Galium aparine
Outline: as §1

soybean = test: Test B pre/postemergence soybean; assay type: in vivo, Glycine max
Outline: as §1

pigweed = test: Test B pre/postemergence pigweed; assay type: in vivo, Amaranthus retroflexus
Outline: as §1

wheat = test: Test B pre/postemergence wheat; assay type: in vivo, Triticum aestivum
Outline: as §1

surinam grass = test: Test B pre/postemergence surinam grass; assay type: in vivo, Brachiaria decumbens
Outline: as §1

duck salad = test: Test B flood test duck salad; assay type: in vivo, Heteranthera limosa
Outline: as §2

cocklebur = test: Test B pre/postemergence cocklebur; assay type: in vivo, Xanthium strumarium
Outline: as §1

[1] = Postemergence, Rate 62 g/ha, scale 0 to 10, 0 is no effect, 10 is complete control
[2] = Postemergence, Rate 250 g/ha, scale 0 to 10, 0 no effect, 10 complete control
[3] = Preemergence, Rate 62 g/ha, scale 0 to 10, 0 is no effect, 10 is complete control
[4] = Preemergence, Rate 125 g/ha, scale 0 to 10 (0 no effect, 10 complete control)
[5] = Preemergence, Rate 250 g/ha, scale of 0 to 10 where 0 is no effect and 10 is complete control
[6] = Preemergence, Rate 500 g/ha, scale 0 (no effect) to 10 (complete control)
[7] = Rate 125 g/ha, Postemergence, scale 0 to 10, 0 no effect, 10 complete control
[8] = Rate 500 g/ha, Postemergence, 0 to 10 scale (0 no effect, 10 complete control)
[9] = Rate 125 g/ha, Postemergence section (flood test species), scale 0 to 10, 0 no effect, 10 complete control
[10] = Rate 500 g/ha, Postemergence section of Table B, 0 to 10 scale (0 no effect, 10 complete control)
[11] = flood test, listed under Postemergence, Rate 250 g/ha, scale 0 to 10, 0 no effect, 10 complete control

Cc1ccccc1-n1c(=O)on(C(=O)N(c2cc(OC(C)C)c(Cl)cc2Cl)C(C)C)c1=O [Compound 42]
Crabgrass plant response rating (crabgrass; [1]): 0 | Crabgrass plant response rating (crabgrass; [2]): 0 | Plant response rating, Crabgrass (crabgrass; [3]): 0 | Plant response rating, Crabgrass (crabgrass; [4]): 0 | Plant response rating, Crabgrass (crabgrass; [5]): 0 | Crabgrass plant response rating (crabgrass; [6]): 0 | Crabgrass plant response rating (crabgrass; [7]): 0 | Crabgrass plant response rating (crabgrass; [8]): 0 | Nutsedge plant response rating (purple nutsedge; [1]): 0 | Nutsedge plant response rating (purple nutsedge; [2]): 0 | Plant response rating, Nutsedge (purple nutsedge; [3]): 0 | Plant response rating, Nutsedge (purple nutsedge; [4]): 0 | Plant response rating, Nutsedge (purple nutsedge; [5]): 0 | Nutsedge plant response rating (purple nutsedge; [6]): 0 | Nutsedge plant response rating (purple nutsedge; [7]): 0 | Nutsedge plant response rating (purple nutsedge; [8]): 0 | Wild oats plant response rating (wild oat; [1]): 0 | Wild oats plant response rating (wild oat; [2]): 0 | Plant response rating, Wild oats (wild oat; [4]): 0 | Plant response rating, Wild oats (wild oat; [5]): 0 | Wild oats plant response rating (wild oat; [6]): 0 | Wild oats plant response rating (wild oat; [7]): 0 | Corn plant response rating (corn; [1]): 0 | Corn plant response rating (corn; [2]): 0 | Plant response rating, Corn (corn; [3]): 0 | Plant response rating, Corn (corn; [4]): 0 | Plant response rating, Corn (corn; [5]): 0 | Corn plant response rating (corn; [6]): 0 | Corn plant response rating (corn; [7]): 0 | Corn plant response rating (corn; [8]): 0 | Velvetleaf plant response rating (velvetleaf; [1]): 0 | Velvetleaf plant response rating (velvetleaf; [2]): 0 | Plant response rating, Velvetleaf (velvetleaf; [3]): 0 | Plant response rating, Velvetleaf (velvetleaf; [4]): 0 | Plant response rating, Velvetleaf (velvetleaf; [5]): 0 | Velvetleaf plant response rating (velvetleaf; [6]): 0 | Velvetleaf plant response rating (velvetleaf; [7]): 0 | Blackgrass plant response rating (blackgrass; [1]): 0 | Blackgrass plant response rating (blackgrass; [2]): 0 | Plant response rating, Blackgrass (blackgrass; [3]): 0 | Plant response rating, Blackgrass (blackgrass; [4]): 0 | Plant response rating, Blackgrass (blackgrass; [5]): 0 | Blackgrass plant response rating (blackgrass; [6]): 0 | Blackgrass plant response rating (blackgrass; [7]): 0 | Blackgrass plant response rating (blackgrass; [8]): 0 | Sugarbeets plant response rating (sugar beet; [1]): 0 | Sugarbeets plant response rating (sugar beet; [2]): 0 | Plant response rating, Sugarbeets (sugar beet; [3]): 0 | Plant response rating, Sugarbeets (sugar beet; [4]): 0 | Plant response rating, Sugarbeets (sugar beet; [5]): 0 | Sugarbeets plant response rating (sugar beet; [6]): 0 | Sugarbeets plant response rating (sugar beet; [7]): 0 | Rice plant response rating (rice; [1]): 0 | Rice plant response rating (rice; [9]): 0 | Rice plant response rating (rice; [10]): 0 | Rice plant response rating (rice; [11]): 0 | Giant foxtail plant response rating (giant foxtail; [1]): 0 | Giant foxtail plant response rating (giant foxtail; [2]): 0 | Plant response rating, Giant foxtail (giant foxtail; [3]): 0 | Plant response rating, Giant foxtail (giant foxtail; [4]): 0 | Plant response rating, Giant foxtail (giant foxtail; [5]): 0 | Giant foxtail plant response rating (giant foxtail; [6]): 0 | Giant foxtail plant response rating (giant foxtail; [7]): 0 | Giant foxtail plant response rating (giant foxtail; [8]): 0 | Bedstraw plant response rating (bedstraw; [1]): 0 | Bedstraw plant response rating (bedstraw; [2]): 0 | Plant response rating, Bedstraw (bedstraw; [3]): 0 | Plant response rating, Bedstraw (bedstraw; [4]): 0 | Plant response rating, Bedstraw (bedstraw; [5]): 0 | Bedstraw plant response rating (bedstraw; [6]): 0 | Bedstraw plant response rating (bedstraw; [7]): 0 | Soybean plant response rating (soybean; [1]): 0 | Soybean plant response rating (soybean; [2]): 0 | Plant response rating, Soybean (soybean; [3]): 0 | Plant response rating, Soybean (soybean; [4]): 0 | Plant response rating, Soybean (soybean; [5]): 0 | Soybean plant response rating (soybean; [6]): 0 | Soybean plant response rating (soybean; [7]): 0 | Redroot pigweed plant response rating (pigweed; [1]): 0 | Redroot pigweed plant response rating (pigweed; [2]): 0 | Plant response rating, Redroot pigweed (pigweed; [3]): 0 | Plant response rating, Redroot pigweed (pigweed; [4]): 0 | Plant response rating, Redroot pigweed (pigweed; [5]): 0 | Redroot pigweed plant response rating (pigweed; [6]): 0 | Redroot pigweed plant response rating (pigweed; [7]): 0 | Redroot pigweed plant response rating (pigweed; [8]): 2 | Wheat plant response rating (wheat; [1]): 0 | Wheat plant response rating (wheat; [2]): 0 | Plant response rating, Wheat (wheat; [3]): 0 | Plant response rating, Wheat (wheat; [4]): 0 | Plant response rating, Wheat (wheat; [5]): 0 | Wheat plant response rating (wheat; [6]): 0 | Wheat plant response rating (wheat; [7]): 0 | B. signalgrass plant response rating (surinam grass; [1]): 0 | B. signalgrass plant response rating (surinam grass; [2]): 0 | Plant response rating, B. signalgrass (surinam grass; [3]): 0 | Plant response rating, B. signalgrass (surinam grass; [4]): 0 | Plant response rating, B. signalgrass (surinam grass; [5]): 0 | B. signalgrass plant response rating (surinam grass; [6]): 0 | B. signalgrass plant response rating (surinam grass; [7]): 0 | B. signalgrass plant response rating (surinam grass; [8]): 0 | Ducksalad plant response rating (duck salad; [1]): 0 | Ducksalad plant response rating (duck salad; [9]): 0 | Ducksalad plant response rating (duck salad; [10]): 0 | Ducksalad plant response rating (duck salad; [11]): 0 | Cocklebur plant response rating (cocklebur; [1]): 0 | Cocklebur plant response rating (cocklebur; [2]): 0 | Plant response rating, Cocklebur (cocklebur; [3]): 0 | Plant response rating, Cocklebur (cocklebur; [4]): 0 | Plant response rating, Cocklebur (cocklebur; [5]): 0 | Cocklebur plant response rating (cocklebur; [6]): 0 | Cocklebur plant response rating (cocklebur; [7]): 0 | Cocklebur plant response rating (cocklebur; [8]): 0
